Common to all, as to format: functional
Assay [1] deals with Vibrio parahaemolyticus. The experiment in a line: Antimicrobial activity against Vibrio parahaemolyticus MISR 21116 assessed as bacterial growth inhibition measured after 24 hrs by broth microdilution assay.
Assay [2] relates to Vibrio vulnificus. The experiment in a line: Antimicrobial activity against Vibrio vulnificus MISR 20716 assessed as bacterial growth inhibition measured after 24 hrs by broth microdilution assay.
Assay [3] relates to Vibrio alginolyticus. In words: Antimicrobial activity against Vibrio alginolyticus MISR 30816 assessed as bacterial growth inhibition measured after 24 hrs by broth microdilution assay. In general terms: Dilution methods test growth across graded concentrations, often in twofold steps.
In assay [4] the test system is Vibrio parahaemolyticus. In words: Antimicrobial activity against Vibrio parahaemolyticus MTCC451 assessed as zone of inhibition in diameter per disc at 100 ug measured for 24 to 72 hrs. The settings on record: time 24-72 hrs, read-out: IZ.
Assay [5] deals with Vibrio vulnificus. The experiment in a line: Antimicrobial activity against Vibrio vulnificus MTCC1145 assessed as zone of inhibition in diameter per disc at 100 ug measured for 24 to 72 hrs. The settings on record: time 24-72 hrs, read-out: IZ.
Assay [6] has as its system Vibrio parahaemolyticus. The experiment in a line: Antibacterial activity against Vibrio parahaemolyticus assessed as bacterial growth inhibition by agar dilution method. For orientation: In agar dilution, organisms are placed on agar that contains the substance at set levels.
Assay [7] relates to Vibrio anguillarum. In words: Antimicrobial activity against Vibrio anguillarum QDIO-6 assessed as bacterial growth inhibition by microtiter plate assay.
The test system of assay [8] is Vibrio parahaemolyticus. In words: Antimicrobial activity against Vibrio parahaemolyticus ATCC 17802 assessed as bacterial growth inhibition mesured after 48 hrs by broth dilution assay.
The test system of assay [9] is Vibrio parahaemolyticus. The experiment in a line: Bactericidal activity against Vibrio parahaemolyticus ATCC 17802 assessed as bacterial growth inhibition mesured after 48 hrs by broth dilution assay.
The test system of assay [10] is Vibrio vulnificus. In words: Antimicrobial activity against Vibrio vulnificus assessed as bacterial growth inhibition.
For the next assay, the system named is Vibrio rotiferianus. The experiment in a line: Antimicrobial activity against Vibrio rotiferianus assessed as bacterial growth inhibition.
The next assay has as its system Vibrio campbellii. In words: Antimicrobial activity against Vibrio campbellii assessed as bacterial growth inhibition.
For assay [11], the system named is Vibrio harveyi. In words: Antimicrobial activity against Vibrio harveyi QDIO-9 assessed as bacterial growth inhibition.
Assay [12] concerns Vibrio parahaemolyticus. In words: Antimicrobial activity against Vibrio parahaemolyticus QDIO-10 assessed as bacterial growth inhibition.
The test system of assay [13] is Vibrio anguillarum. The experiment in a line: Antimicrobial activity against Vibrio anguillarum assessed as zone of inhibition in diameter per disk at 50 ug. The settings on record: read-out: IZ.
For assay [14], the system named is Vibrio harveyi. The experiment in a line: Antimicrobial activity against Vibrio harveyi assessed as zone of inhibition in diameter per disk at 50 ug. The conditions noted are these: read-out: IZ.
In assay [15] the test system is Vibrio parahaemolyticus. The experiment in a line: Antimicrobial activity against Vibrio parahaemolyticus assessed as zone of inhibition in diameter per disk at 50 ug. The conditions noted are these: read-out: IZ.
Assay [16] concerns Vibrio splendidus. The experiment in a line: Antimicrobial activity against Vibrio splendidus assessed as zone of inhibition in diameter per disk at 50 ug. The settings on record: read-out: IZ.
Assay [17] has as its system Vibrio parahaemolyticus. The experiment in a line: Antimicrobial activity against Vibrio parahaemolyticus assessed as zone of inhibition.
Assay [18] deals with Vibrio anguillarum. In words: Antimicrobial activity against Vibrio anguillarum assessed as zone of inhibition.
The test system of assay [19] is Vibrio harveyi. The experiment in a line: Antimicrobial activity against Vibrio harveyi assessed as zone of inhibition.
The test system of assay [20] is Vibrio splendidus. In words: Antimicrobial activity against Vibrio splendidus assessed as zone of inhibition.
Assay [21] deals with Vibrio anguillarum. The experiment in a line: Antimicrobial activity against Vibrio anguillarum assessed as zone of inhibition per disc at 100 ug measured after 24 hrs by disc diffusion assay. The conditions noted are these: read-out: IZ.
Assay [22] concerns Vibrio parahaemolyticus. The experiment in a line: Antimicrobial activity against Vibrio parahaemolyticus assessed as bacterial growth inhibition by MTT assay.
The test system of assay [23] is Vibrio vulnificus. In words: Antimicrobial activity against Vibrio vulnificus assessed as bacterial growth inhibition by MTT assay. In general terms: Formazan colour is commonly taken as a measure of viable cells.
The subject of assay [24] is Vibrio parahaemolyticus. In words: Antimicrobial activity against Vibrio parahaemolyticus ATCC 17802 assessed as bacterial growth inhibition by microplate reader assay.
Assay [25] concerns Vibrio alginolyticus. In words: Antimicrobial activity against Vibrio alginolyticus assessed as bacterial growth inhibition by microplate reader assay.
For assay [26], the system named is Vibrio anguillarum. The experiment in a line: Antimicrobial activity against Vibrio anguillarum assessed as bacterial growth inhibition.
The test system of assay [27] is Vibrio harveyi. In words: Antimicrobial activity against Vibrio harveyi assessed as bacterial growth inhibition.
The test system of the next assay is Vibrio ichthyoenteri. The experiment in a line: Antimicrobial activity against Vibrio ichthyoenteri assessed as bacterial growth inhibition.

Structures are written as SMILES. Converted amounts (≈) assume the structure as drawn.

As to `C[C@@H]1CCC/C=C/[C@H](O)C[C@@H](O)C/C=C\C=C\[C@@H](O)C/C=C/C=C\C(=O)O1`, the minimal inhibitory concentration (MIC) in the assay on Vibrio parahaemolyticus [1], in the assay with Vibrio vulnificus [2] and in the assay with Vibrio alginolyticus [3] was 64 µg/mL (≈ 170 µM) in each case.
As to `CC[C@@H](O)/C=C/CC(=O)O[C@@H]1/C=C/C=C\C[C@H](O)C[C@@H](O)/C=C/C=C\CCC[C@@H](C)OC(=O)/C=C\C=C\C1`, the results for the zone of inhibition at 100 µg/disc with Vibrio parahaemolyticus [4] and with Vibrio vulnificus [5] were 16 mm and 14.3 mm, respectively.
As to `CC(C)[C@H]1C(=O)N(C)[C@@H](C)C(=O)NCCC[C@H](NC(=O)/C=C/C=C/C(=O)O)C(=O)N1C`, the minimal inhibitory concentration (MIC) (usually the least concentration at which growth counts as inhibited) with Vibrio parahaemolyticus [6] came out at 3.13 µM (≈ 1.37 µg/mL).
Turning to `C[C@@H]1CCCCC2=C(O)C(=O)C[C@H]2C(=O)O1`, in the assay with Vibrio anguillarum [7], the MIC is 2 µg/mL.
Turning to `COc1ccc(Oc2cc(C)cc(O)c2)c(O[C@@H]2O[C@H](CO)[C@H](O)[C@H](O)[C@H]2O)c1`, the MIC in the assay with Vibrio parahaemolyticus [8] is 0.625 µM (≈ 0.255 µg/mL). The MBC (as a rule, the smallest concentration meeting the test's criterion for killing) with Vibrio parahaemolyticus [9] came to 2.5 µM (≈ 1.02 µg/mL).
With `CO[C@H](C)[C@@H](/C=C/C=C/C(=O)N(C)[C@H]1CCCN(C)C(=O)[C@H](C)N(C)C(=O)[C@H](C(C)C)N(C)C1=O)OC`, the MIC with Vibrio parahaemolyticus [6] amounted to 25 µM (≈ 13.1 µg/mL).
Turning to `COC(OC)c1ccc2c(c1O)C(=O)c1ccccc1C2=O`, the MIC with Vibrio vulnificus [10], with Vibrio rotiferianus and in the assay on Vibrio campbellii was 15.6 µg/mL (≈ 52.3 µM) throughout.
As for `C=C[C@@]1(C)CCC2=C(C(=O)C=C3C(C)(C)CCC[C@]32O)[C@@H]1O`, the MIC with Vibrio harveyi [11] and in the assay with Vibrio parahaemolyticus [12] was 8 µg/mL (≈ 26.5 µM) each time.
With `Cc1cc(O)cc(O)c1-c1cc2cc(O)cc(O)c2c(=O)o1`, the zone of inhibition at 50 µg/disc in the assay on Vibrio anguillarum [13], in the assay with Vibrio harveyi [14], with Vibrio parahaemolyticus [15] and in the assay on Vibrio splendidus [16] was 7 mm each time.
In the case of `CC(=O)CCC[C@H](C)[C@@H]1C=C[C@@](C)(O[C@H]2O[C@H](CO)[C@@H](O)[C@H](O)[C@H]2NC(C)=O)CC1`, in the assay with Vibrio parahaemolyticus [17], the “inhibition zone (IZ)” value was 6.1 mm. Besides, the minimal inhibitory concentration (MIC) in the assay with Vibrio anguillarum [18], in the assay on Vibrio harveyi [19] and in the assay with Vibrio splendidus [20] was 6.1 µg/mL (≈ 14.3 µM) each time.
`O=C1N[C@](O)(Cc2ccccc2)C(=O)N2CCC[C@H]12`: the zone of inhibition at 100 µg/disc in the assay with Vibrio anguillarum [21] was determined as 20 mm.
With `COC(=O)[C@H](O)CS[C@@H]1CCCCCCC[C@@H](C)OC(=O)C1`, the MIC in the assay on Vibrio anguillarum [7] came to 2 µg/mL.
`COC(=O)/C=C/C=C/C(=O)N[C@H]1CCCNC(=O)[C@H](C)N(C)C(=O)[C@H](C(C)C)N(C)C1=O`: in the assay with Vibrio parahaemolyticus [6], the MIC was determined as 6.25 µM (≈ 2.82 µg/mL).
Take `COC(=O)[C@H](O)CS[C@H]1CC(=O)O[C@H](C)CCCCCC[C@@H]1O`: the minimum inhibitory concentration (MIC) in the assay with Vibrio anguillarum [7] stood at 4 µg/mL.
For the molecule `CC(=O)c1ccccc1C[C@@H](O)/C=C/CC(=O)O[C@@H]1/C=C/C=C\C[C@H](O)C[C@@H](O)/C=C/C=C/CCC[C@@H](C)OC(=O)/C=C\C=C\C1`, the MIC in the assay with Vibrio parahaemolyticus [22] and in the assay on Vibrio vulnificus [23] was 3.12 µg/mL (≈ 4.93 µM) each time.
With `COc1c(Cl)c(C)c(Cl)c2c1[C@H]1c3c(O)c(C)cc(O)c3C[C@@H]1C(C)(C)O2` (racemic), the minimal inhibitory concentration (MIC) in the assay with Vibrio parahaemolyticus [24] and with Vibrio alginolyticus [25] was 20 µM in each case.
For the molecule `COc1c(Cl)c(C)c(Cl)c2c1[C@H]1c3c(O)c(C)cc(O)c3C[C@H]1C(C)(C)O2` (racemic), the MIC in the assay on Vibrio parahaemolyticus [24] and in the assay with Vibrio alginolyticus [25] was 10 µM in each case.
Take `O=C(O)c1cn(C2CC2)c2cc(N3CCNCC3)c(F)cc2c1=O` [CIPROFLOXACIN]: the minimal inhibitory concentration (MIC) in the assay on Vibrio anguillarum [26] worked out at 20 µM (≈ 6.63 µg/mL); in the assay on Vibrio harveyi [27], 32 µg/mL (≈ 96.6 µM). Further, the zone of inhibition at 100 µg/disc with Vibrio anguillarum [21] is 26 mm.
As for `Cc1cc(O)cc(Oc2cc(C)cc(O)c2O)c1` [CORDYOL C], in the assay on Vibrio ichthyoenteri, the minimal inhibitory concentration (MIC) was found to be 40 µg/mL (≈ 162 µM).
As for `COc1cc(C)c(Oc2cc(C)cc(O)c2)c(O)c1` [CYPERIN], the MIC in the assay on Vibrio parahaemolyticus [8] is 0.312 µM (≈ 0.0812 µg/mL). Further, in the assay with Vibrio parahaemolyticus [9], the MBC came to 0.312 µM (≈ 0.0812 µg/mL).
`Cc1cc(O)cc(Oc2cc(C)cc(O)c2)c1` [DIORCINOL]: the MIC in the assay on Vibrio ichthyoenteri worked out at 40 µg/mL (≈ 174 µM).
Turning to `Cc1cc(O)c2c(c1)C(=O)c1cc(O)cc(O)c1C2=O` [EMODIN], the minimum inhibitory concentration (MIC) with Vibrio vulnificus [10], in the assay with Vibrio rotiferianus and in the assay with Vibrio campbellii was 15.6 µg/mL (≈ 57.7 µM) each time.

The values are drawn from ChEMBL document CHEMBL5360560, “Anti-Vibrio potential of natural products from marine microorganisms” (Eur J Med Chem, 2023).
